Test results as given in ChEMBL document CHEMBL4311992, “Discovery of 3-(((9H-purin-6-yl)amino)methyl)-4,6-dimethylpyridin-2(1H)-one derivatives as novel tubulin polymerization inhibitors for treatment of cancer” (Eur J Med Chem, 2019).

Legend:
[1] = system: Serine/threonine-protein kinase D1 (Homo sapiens), Q15139 [UNDEFINED MUTATION]; experiment: Inhibition of recombinant full-length human PKCmu R135A mutant assessed as residual activity at 10 uM using KKLNRTLSVA as substrate measured after 40 mins in presence of [gamma33P]ATP by scintillation counting method
[2] = biological target: Tyrosine-protein kinase JAK2 (Homo sapiens) (UniProt O60674); experiment: Inhibition of recombinant human JAK2 (808 to end residues) assessed as residual activity at 10 uM using KTFCGTPEYLAPEVRREPRILSEEEQEMFRDFDYIADWC as substrate measured after 40 mins in presence of [gamma33P]ATP by scintillation counting method
[3] = organism: Mus musculus; experiment: Inhibition of recombinant full-length mouse PI3K p110alpha/p85alpha assessed as residual activity at 10 uM using phosphatidylinositol-4, 5-bisphosphate as substrate measured after 40 mins by HTRF assay
[4] = organism: Homo sapiens; experiment: Inhibition of recombinant human ARAF Y301D/Y302D mutant (273 to end residues) assessed as residual activity at 10 uM using myelin basic protein as substrate measured after 40 mins in presence of [gamma33P]ATP by scintillation counting method
[5] = biological target: Cyclin-dependent kinase 1/cyclin B1 (Homo sapiens) (UniProt P06493+P14635); experiment: Inhibition of recombinant full-length human CDK1/cyclinB assessed as residual activity at 10 uM using histone H1 as substrate measured after 40 mins in presence of [gamma33P]ATP by scintillation counting method; assay type: protein-complex assay
[6] = system: Epidermal growth factor receptor (Homo sapiens), P00533 [L858R]; experiment: Inhibition of recombinant human EGFR L858R mutant (696 to end residues) assessed as residual activity at 10 uM using poly(Glu, Tyr) 4:1 as substrate measured after 40 mins in presence of [gamma33P]ATP by scintillation counting method
[7] = biological target: Rhodopsin kinase GRK7 (Homo sapiens) (UniProt Q8WTQ7); experiment: Inhibition of recombinant full-length human GRK7 assessed as residual activity at 10 uM using casein as substrate measured after 40 mins in presence of [gamma33P]ATP by scintillation counting method
[8] = biological target: Serine/threonine-protein kinase PAK 6 (Homo sapiens) (UniProt Q9NQU5); experiment: Inhibition of recombinant human PAK6 (382 to end residues) assessed as residual activity at 10 uM using RRRLSFAEPG as substrate measured after 40 mins in presence of [gamma33P]ATP by scintillation counting method
[9] = biological target: Serine/threonine-protein kinase 25 (Homo sapiens) (UniProt O00506); experiment: Inhibition of human STK25 (1 to 308 residues) using RLGRDKYKTLRQIRQ as substrate measured after 40 mins in presence of [gamma33P]ATP by scintillation counting method; set-up: scale not given: the % may be the effect or the level left
[10] = biological target: Wee1-like protein kinase 2 (Homo sapiens) (UniProt P0C1S8); experiment: Inhibition of recombinant full-length human WEE1b assessed as residual activity at 10 uM using LSNLYHQGKFLQTFCGSPLYRRR as substrate measured after 120 mins in presence of [gamma33P]ATP by scintillation counting method
Sequence of Wee1-like protein kinase 2 (Homo sapiens) (P0C1S8 whole entry, looked up): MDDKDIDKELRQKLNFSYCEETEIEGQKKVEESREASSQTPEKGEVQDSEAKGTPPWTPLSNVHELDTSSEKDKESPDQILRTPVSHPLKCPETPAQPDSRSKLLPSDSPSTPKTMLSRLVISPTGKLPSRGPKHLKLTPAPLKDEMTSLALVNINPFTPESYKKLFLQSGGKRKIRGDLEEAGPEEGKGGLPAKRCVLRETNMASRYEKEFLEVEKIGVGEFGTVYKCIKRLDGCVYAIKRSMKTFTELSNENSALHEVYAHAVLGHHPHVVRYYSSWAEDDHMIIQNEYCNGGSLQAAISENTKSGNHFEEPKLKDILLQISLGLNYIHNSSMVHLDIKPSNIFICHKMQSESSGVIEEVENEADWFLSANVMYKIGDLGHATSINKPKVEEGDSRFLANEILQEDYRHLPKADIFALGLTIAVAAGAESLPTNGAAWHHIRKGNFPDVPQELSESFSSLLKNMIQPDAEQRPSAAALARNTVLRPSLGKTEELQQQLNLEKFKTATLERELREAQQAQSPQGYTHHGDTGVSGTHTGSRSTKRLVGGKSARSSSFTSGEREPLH

Sequence of Cyclin-dependent kinase 1/cyclin B1 (Homo sapiens) (P06493 whole entry, looked up): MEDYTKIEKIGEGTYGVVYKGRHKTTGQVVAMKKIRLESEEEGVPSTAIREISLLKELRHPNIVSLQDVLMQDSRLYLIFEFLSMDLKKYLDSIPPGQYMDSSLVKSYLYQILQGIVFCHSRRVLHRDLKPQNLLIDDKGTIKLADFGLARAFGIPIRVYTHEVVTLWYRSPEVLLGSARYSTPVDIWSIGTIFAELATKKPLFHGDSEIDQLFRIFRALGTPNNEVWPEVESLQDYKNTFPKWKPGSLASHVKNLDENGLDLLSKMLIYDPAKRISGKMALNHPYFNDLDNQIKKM
Sequence of Cyclin-dependent kinase 1/cyclin B1 (Homo sapiens) (P14635 whole entry, looked up): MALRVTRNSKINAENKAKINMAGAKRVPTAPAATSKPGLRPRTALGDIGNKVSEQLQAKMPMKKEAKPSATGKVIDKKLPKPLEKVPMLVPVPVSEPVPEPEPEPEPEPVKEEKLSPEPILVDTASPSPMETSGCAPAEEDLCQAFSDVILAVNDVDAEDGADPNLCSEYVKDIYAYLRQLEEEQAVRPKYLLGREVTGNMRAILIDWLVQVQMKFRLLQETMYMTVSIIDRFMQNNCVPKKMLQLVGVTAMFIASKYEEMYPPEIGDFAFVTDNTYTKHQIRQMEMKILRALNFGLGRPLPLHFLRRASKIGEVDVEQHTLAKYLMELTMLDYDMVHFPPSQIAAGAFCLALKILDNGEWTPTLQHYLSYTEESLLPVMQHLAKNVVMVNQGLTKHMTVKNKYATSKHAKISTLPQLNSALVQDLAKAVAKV
Sequence of Serine/threonine-protein kinase D1 (Homo sapiens), Q15139 [UNDEFINED MUTATION] (Q15139 whole entry, looked up, stated change not applied): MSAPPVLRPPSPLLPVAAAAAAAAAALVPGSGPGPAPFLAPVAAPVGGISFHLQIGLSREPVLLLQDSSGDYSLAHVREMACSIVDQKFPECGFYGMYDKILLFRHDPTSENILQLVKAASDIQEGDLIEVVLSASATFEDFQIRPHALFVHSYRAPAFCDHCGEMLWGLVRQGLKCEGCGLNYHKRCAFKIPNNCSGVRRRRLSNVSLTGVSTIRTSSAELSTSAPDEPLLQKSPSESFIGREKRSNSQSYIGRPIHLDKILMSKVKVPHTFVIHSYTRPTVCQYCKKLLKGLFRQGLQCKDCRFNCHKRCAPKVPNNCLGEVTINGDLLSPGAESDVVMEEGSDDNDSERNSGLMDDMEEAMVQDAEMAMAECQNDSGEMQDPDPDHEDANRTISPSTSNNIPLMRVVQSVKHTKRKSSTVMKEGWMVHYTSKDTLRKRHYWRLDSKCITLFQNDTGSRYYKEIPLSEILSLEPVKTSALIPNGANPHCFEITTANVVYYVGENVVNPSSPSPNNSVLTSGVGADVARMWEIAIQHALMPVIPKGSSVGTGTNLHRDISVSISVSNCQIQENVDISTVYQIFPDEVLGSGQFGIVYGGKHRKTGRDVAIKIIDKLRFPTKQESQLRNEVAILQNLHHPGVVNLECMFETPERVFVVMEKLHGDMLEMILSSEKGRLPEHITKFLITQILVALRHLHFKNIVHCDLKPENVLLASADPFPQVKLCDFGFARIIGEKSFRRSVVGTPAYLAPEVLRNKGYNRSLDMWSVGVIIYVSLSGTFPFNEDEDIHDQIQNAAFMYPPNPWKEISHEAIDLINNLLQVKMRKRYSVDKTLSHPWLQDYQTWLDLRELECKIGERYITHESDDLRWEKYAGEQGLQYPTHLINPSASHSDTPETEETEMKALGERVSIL
Sequence of Rhodopsin kinase GRK7 (Homo sapiens) (Q8WTQ7 whole entry): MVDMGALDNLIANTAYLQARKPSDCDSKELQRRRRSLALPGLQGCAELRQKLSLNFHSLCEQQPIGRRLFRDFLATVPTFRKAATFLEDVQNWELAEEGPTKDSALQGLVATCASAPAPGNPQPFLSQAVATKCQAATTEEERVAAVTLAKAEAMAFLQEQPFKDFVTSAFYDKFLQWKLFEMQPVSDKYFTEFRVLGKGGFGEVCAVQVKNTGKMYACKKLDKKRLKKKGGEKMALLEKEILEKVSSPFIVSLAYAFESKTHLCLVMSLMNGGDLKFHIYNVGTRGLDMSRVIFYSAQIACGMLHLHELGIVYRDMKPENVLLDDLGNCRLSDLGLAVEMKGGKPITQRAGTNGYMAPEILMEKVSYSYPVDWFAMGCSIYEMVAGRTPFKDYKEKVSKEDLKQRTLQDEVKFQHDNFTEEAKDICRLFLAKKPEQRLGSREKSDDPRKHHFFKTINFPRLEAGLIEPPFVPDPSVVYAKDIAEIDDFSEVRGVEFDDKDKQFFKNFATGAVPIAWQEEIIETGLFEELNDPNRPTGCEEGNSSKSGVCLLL
Sequence of Serine/threonine-protein kinase PAK 6 (Homo sapiens) (Q9NQU5 whole entry, looked up, the tested form may be a part): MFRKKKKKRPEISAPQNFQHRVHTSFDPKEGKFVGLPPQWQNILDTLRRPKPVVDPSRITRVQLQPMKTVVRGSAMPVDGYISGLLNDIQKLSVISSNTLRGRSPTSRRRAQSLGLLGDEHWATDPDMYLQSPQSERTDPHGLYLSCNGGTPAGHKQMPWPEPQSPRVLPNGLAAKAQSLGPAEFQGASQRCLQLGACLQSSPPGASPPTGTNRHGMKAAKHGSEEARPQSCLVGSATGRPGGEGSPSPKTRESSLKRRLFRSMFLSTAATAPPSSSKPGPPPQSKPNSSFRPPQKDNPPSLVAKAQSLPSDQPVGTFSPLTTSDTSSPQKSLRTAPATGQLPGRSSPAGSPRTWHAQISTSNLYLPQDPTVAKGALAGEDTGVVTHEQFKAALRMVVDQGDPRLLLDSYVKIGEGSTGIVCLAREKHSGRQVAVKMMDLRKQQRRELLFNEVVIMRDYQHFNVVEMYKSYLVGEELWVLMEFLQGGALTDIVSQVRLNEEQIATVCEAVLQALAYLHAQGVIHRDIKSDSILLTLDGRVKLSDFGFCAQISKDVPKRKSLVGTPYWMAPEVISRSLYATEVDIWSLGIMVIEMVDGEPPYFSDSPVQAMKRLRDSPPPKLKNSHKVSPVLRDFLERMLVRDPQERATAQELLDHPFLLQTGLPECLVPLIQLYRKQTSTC
Sequence of Serine/threonine-protein kinase 25 (Homo sapiens) (O00506 whole entry, looked up, the tested form may be a part): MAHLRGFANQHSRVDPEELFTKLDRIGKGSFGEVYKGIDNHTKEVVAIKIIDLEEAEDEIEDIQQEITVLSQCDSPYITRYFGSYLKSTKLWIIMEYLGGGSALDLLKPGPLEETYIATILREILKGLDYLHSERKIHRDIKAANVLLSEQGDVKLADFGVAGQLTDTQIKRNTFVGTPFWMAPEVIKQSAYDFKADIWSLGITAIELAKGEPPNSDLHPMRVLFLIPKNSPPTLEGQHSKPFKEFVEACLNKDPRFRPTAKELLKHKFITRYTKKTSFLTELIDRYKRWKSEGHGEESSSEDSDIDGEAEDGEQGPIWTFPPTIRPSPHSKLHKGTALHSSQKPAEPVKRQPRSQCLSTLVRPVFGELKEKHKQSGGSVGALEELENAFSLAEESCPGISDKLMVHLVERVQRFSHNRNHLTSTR
Sequence of Tyrosine-protein kinase JAK2 (Homo sapiens) (O60674 whole entry): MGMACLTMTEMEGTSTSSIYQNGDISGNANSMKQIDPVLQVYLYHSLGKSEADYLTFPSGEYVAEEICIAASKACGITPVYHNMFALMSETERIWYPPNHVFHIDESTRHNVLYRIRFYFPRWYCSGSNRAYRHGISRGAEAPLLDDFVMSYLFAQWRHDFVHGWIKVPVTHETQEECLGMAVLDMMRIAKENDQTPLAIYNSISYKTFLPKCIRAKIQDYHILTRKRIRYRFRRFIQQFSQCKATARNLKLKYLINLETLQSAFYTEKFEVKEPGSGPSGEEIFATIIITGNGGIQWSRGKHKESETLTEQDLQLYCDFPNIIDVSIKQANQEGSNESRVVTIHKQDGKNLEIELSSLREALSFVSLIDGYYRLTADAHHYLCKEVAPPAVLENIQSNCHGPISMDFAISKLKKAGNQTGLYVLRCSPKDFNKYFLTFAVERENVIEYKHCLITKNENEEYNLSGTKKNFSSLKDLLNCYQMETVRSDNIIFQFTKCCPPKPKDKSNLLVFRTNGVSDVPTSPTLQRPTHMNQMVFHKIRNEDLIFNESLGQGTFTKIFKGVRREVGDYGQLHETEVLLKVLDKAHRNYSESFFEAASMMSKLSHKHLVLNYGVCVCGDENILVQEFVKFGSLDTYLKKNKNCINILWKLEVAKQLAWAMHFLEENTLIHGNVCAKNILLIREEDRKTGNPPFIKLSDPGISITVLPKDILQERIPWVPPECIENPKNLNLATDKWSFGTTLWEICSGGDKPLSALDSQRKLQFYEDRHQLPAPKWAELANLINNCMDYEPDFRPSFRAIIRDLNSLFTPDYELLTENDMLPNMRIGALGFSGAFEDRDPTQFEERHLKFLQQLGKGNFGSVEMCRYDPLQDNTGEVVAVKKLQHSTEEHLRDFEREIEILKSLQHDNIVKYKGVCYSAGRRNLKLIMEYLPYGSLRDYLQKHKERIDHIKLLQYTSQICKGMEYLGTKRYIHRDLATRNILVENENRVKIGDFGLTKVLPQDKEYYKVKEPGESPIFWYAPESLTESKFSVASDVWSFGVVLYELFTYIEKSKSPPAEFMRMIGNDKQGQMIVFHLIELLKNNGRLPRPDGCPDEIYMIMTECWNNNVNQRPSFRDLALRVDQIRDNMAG

Question: For `Cc1cc(C)c(CNc2nc(Cl)nc3c2ncn3C2CCCC2)c(=O)[nH]1`, which Activity [1] is on record?
Answer: The Activity was 103%.

Question: And the Activity [2]?
Answer: Its Activity is 115%.

Question: And the Activity [3]?
Answer: The Activity was 99.5%.

Question: What about the Activity [4] of the same compound?
Answer: The Activity was 122%.

Question: And the Activity [5]?
Answer: The Activity was 102%.

Question: And the Activity [6]?
Answer: Its Activity is 104%.

Question: What about the Activity [7] of the same compound?
Answer: Its Activity is 102%.

Question: And the Activity [8]?
Answer: Its Activity is 101%.

Question: What about the Activity [9] of the same compound?
Answer: Its Activity is 106%.

Question: And the Activity [10]?
Answer: Its Activity is 95%.
